Tests used:
Assay in all cases: area under concentration-response curve (viability) (AUC (a.u.)); higher = less active
Details in all cases: 48 h
NCI-H295R = system: NCI-H295R
Procedure, shortened: (§1)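 Three adrenocortical carcinoma cell lines were exposed for 48 h to library compounds at 11 concentrations in 1,536-well plates, then read by CellTiter-Glo luminescence. Signals were scaled per plate against vehicle and empty-well controls. From fitted concentration-response curves of inhibitory or non-responding classes alone, AC50 and area under the curve were obtained.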

CU-ACC2 = system: CU-ACC2
Procedure, shortened: as §1

CU-ACC1 = system: CU-ACC1
Procedure, shortened: as §1

O=C(Cc1ccccc1)Nc1nnc(CCSCCc2nnc(NC(=O)Cc3ccccc3)s2)s1
area under concentration-response curve (NCI-H295R): 507 | area under concentration-response curve (CU-ACC2): 532 | area under concentration-response curve (CU-ACC1): 509

Oc1ccc(/C=C/c2cc(O)cc(O)c2)cc1
area under concentration-response curve (NCI-H295R): 547 | area under concentration-response curve (CU-ACC2): 574 | area under concentration-response curve (CU-ACC1): 482

NCCCCCC(=O)O
area under concentration-response curve (NCI-H295R): 540 | area under concentration-response curve (CU-ACC2): 585 | area under concentration-response curve (CU-ACC1): 509

CC(C)C(C)/C=C/C(C)C1CCC2C3=CC=C4CC(O)CCC4(C)C3CCC21C (stereo unspecified)
area under concentration-response curve (NCI-H295R): 597 | area under concentration-response curve (CU-ACC2): 636 | area under concentration-response curve (CU-ACC1): 521

N[C@@H](Cc1cc(I)c(Oc2cc(I)c(O)c(I)c2)c(I)c1)C(=O)O
area under concentration-response curve (NCI-H295R): 564 | area under concentration-response curve (CU-ACC2): 620 | area under concentration-response curve (CU-ACC1): 548

C[N+]1(C)[C@@H]2CC(OC(=O)[C@H](CO)c3ccccc3)C[C@H]1[C@@H]1O[C@@H]12 (stereo partly specified)
area under concentration-response curve (NCI-H295R): 500 | area under concentration-response curve (CU-ACC2): 556 | area under concentration-response curve (CU-ACC1): 531

Cn1c(Nc2ccc(C(F)(F)F)cc2)nc2cc(Oc3ccnc(-c4nc(C(F)(F)F)c[nH]4)c3)ccc21
area under concentration-response curve (NCI-H295R): 469 | area under concentration-response curve (CU-ACC2): 508 | area under concentration-response curve (CU-ACC1): 369

Cn1ncc2cc(-c3cnc(N)c(Cl)c3N3CCC4(CCNC4=O)CC3)ccc21
area under concentration-response curve (NCI-H295R): 536 | area under concentration-response curve (CU-ACC2): 484 | area under concentration-response curve (CU-ACC1): 475

CC/1=C2/N(C(=O)C(=C1)/NC3=CC(=NC=N3)N)C4(CCCCC4)NC2=O
area under concentration-response curve (NCI-H295R): 537 | area under concentration-response curve (CU-ACC2): 641 | area under concentration-response curve (CU-ACC1): 594

C[C@H]1CNCCCN1[S+](=O)([O-])c1cccc2cncc(F)c12
area under concentration-response curve (NCI-H295R): 551 | area under concentration-response curve (CU-ACC2): 589 | area under concentration-response curve (CU-ACC1): 530

O=C(O)CC(C(=O)O)N1C(=O)/C(=C2/C(=O)Nc3ccc(Br)cc32)SC1=S (stereo unspecified)
area under concentration-response curve (NCI-H295R): 567 | area under concentration-response curve (CU-ACC2): 593 | area under concentration-response curve (CU-ACC1): 569

CNC(=O)c1cccc(-c2ccc3c(N4CCOC[C@@H]4C)nc(N4CCOC[C@@H]4C)nc3n2)c1
area under concentration-response curve (NCI-H295R): 453 | area under concentration-response curve (CU-ACC2): 545 | area under concentration-response curve (CU-ACC1): 452

CCNC(=O)[C@H]1O[C@@H](n2cnc3c(N)nc(NCCc4ccc(CCC(=O)O)cc4)nc32)[C@H](O)[C@@H]1O
area under concentration-response curve (NCI-H295R): 537 | area under concentration-response curve (CU-ACC2): 587 | area under concentration-response curve (CU-ACC1): 404

CN1N(C2=CC=CC=C2)C(=O)C(=C1/C3=CC=CC=C3)/C(=O)C4=CC=C(C)C(=C4N)C5=CC=C6N=C(C)C=CC6=C5
area under concentration-response curve (NCI-H295R): 553 | area under concentration-response curve (CU-ACC2): 634 | area under concentration-response curve (CU-ACC1): 531

OC[C@H]1O[C@H](C[C@@H]1O)N2/C=C(C(=O)NC2=O)/C(F)(F)F
area under concentration-response curve (NCI-H295R): 583 | area under concentration-response curve (CU-ACC2): 650 | area under concentration-response curve (CU-ACC1): 538

C[C@H]1CN(CCN1C2=CN=C(NC/3=C/C(=C\N(C)C3=O)C4=CC=NC(=C4CO)N5CC[N]6C7=C(CC(C)(C)C7)C=C6C5=O)C=C2)C8COC8
area under concentration-response curve (NCI-H295R): 560 | area under concentration-response curve (CU-ACC2): 618 | area under concentration-response curve (CU-ACC1): 532

Cc1c(F)cccc1NC(=O)Nc1ccc(Cl)c([S+](=O)([O-])[C@H]2CCCNC2)c1O
area under concentration-response curve (NCI-H295R): 552 | area under concentration-response curve (CU-ACC2): 545 | area under concentration-response curve (CU-ACC1): 540

C=C[C@H]1CN2CCC1C[C@@H]2[C@@H](O)c1ccnc2ccccc12 (stereo partly specified)
area under concentration-response curve (NCI-H295R): 486 | area under concentration-response curve (CU-ACC2): 522 | area under concentration-response curve (CU-ACC1): 455

N=C(N)NC(=O)c1nc(Cl)c(N)nc1N
area under concentration-response curve (NCI-H295R): 615 | area under concentration-response curve (CU-ACC2): 658 | area under concentration-response curve (CU-ACC1): 455

CN1C2CCC1CC(OC(=O)C(CO)c1ccccc1)C2 (stereo unspecified)
area under concentration-response curve (NCI-H295R): 396 | area under concentration-response curve (CU-ACC2): 396 | area under concentration-response curve (CU-ACC1): 408

CC(C)N(CCCNC(=O)Nc1ccc(C(C)(C)C)cc1)C[C@H]1O[C@@H](n2ccc3c(N)ncnc32)[C@H](O)[C@@H]1O
area under concentration-response curve (NCI-H295R): 578 | area under concentration-response curve (CU-ACC2): 656 | area under concentration-response curve (CU-ACC1): 537

Cn1cc(-c2ccc3nnc(C(F)(F)c4ccc5ncccc5c4)n3n2)cn1
area under concentration-response curve (NCI-H295R): 502 | area under concentration-response curve (CU-ACC2): 583 | area under concentration-response curve (CU-ACC1): 478

O=C1\C=C/C=C2/[C@H]3CNC[C@H](C3)CN12
area under concentration-response curve (NCI-H295R): 576 | area under concentration-response curve (CU-ACC2): 663 | area under concentration-response curve (CU-ACC1): 593

CCN[C@H]1C[C@H](C)[S+](=O)([O-])c2sc([S+](N)(=O)[O-])cc21
area under concentration-response curve (NCI-H295R): 558 | area under concentration-response curve (CU-ACC2): 612 | area under concentration-response curve (CU-ACC1): 514

CCC[C@H](N[C@@H](C)C(=O)N1[C@H](C(=O)O)C[C@@H]2CCCC[C@@H]21)C(=O)OCC
area under concentration-response curve (NCI-H295R): 548 | area under concentration-response curve (CU-ACC2): 589 | area under concentration-response curve (CU-ACC1): 531

O=c1sn(-c2cccc3ccccc23)c(=O)n1Cc1ccccc1
area under concentration-response curve (NCI-H295R): 433 | area under concentration-response curve (CU-ACC2): 501 | area under concentration-response curve (CU-ACC1): 462

CC1=NN(c2ccc(C(=O)O)cc2)C(=O)/C1=C/c1ccc(-c2cc(C)c(C)cc2[N+](=O)[O-])o1
area under concentration-response curve (NCI-H295R): 585 | area under concentration-response curve (CU-ACC2): 661 | area under concentration-response curve (CU-ACC1): 556

OC1=CC2=C(C(=O)\C=C(/O2)C3=CC=CC=C3)C(=C1O)O
area under concentration-response curve (NCI-H295R): 489 | area under concentration-response curve (CU-ACC2): 462 | area under concentration-response curve (CU-ACC1): 458

C[C@@H]1CCN(C(=O)N2CCCC2)C[C@@H]1N(C)c1ncnc2[nH]ccc12
area under concentration-response curve (NCI-H295R): 505 | area under concentration-response curve (CU-ACC2): 562 | area under concentration-response curve (CU-ACC1): 477

C[C@H]1CN(C[C@@H](C)N1)C2=C(F)C3=C(C(=C2F)N)C(=O)\C(=C/N3C4CC4)C(O)=O
area under concentration-response curve (NCI-H295R): 537 | area under concentration-response curve (CU-ACC2): 503 | area under concentration-response curve (CU-ACC1): 512

O=C(CO)N1CCC(c2n[nH]c(-c3ccc(Cl)cc3)c2-c2ccncn2)CC1
area under concentration-response curve (NCI-H295R): 515 | area under concentration-response curve (CU-ACC2): 454 | area under concentration-response curve (CU-ACC1): 520

C=C1[C@H](OC(=O)/C=C(\C)CC)C[C@@H](C(C)C)[C@@H]2[C@H]([C@@H](C)OC(C)=O)C(=O)C[C@@H]12
area under concentration-response curve (NCI-H295R): 557 | area under concentration-response curve (CU-ACC2): 617 | area under concentration-response curve (CU-ACC1): 527

OC(=O)C1=CC=C(NC2=NC3=C(C\N=C(/C4=CC(=CC=C34)Cl)C5=C(F)C=CC=C5F)C=N2)C=C1
area under concentration-response curve (NCI-H295R): 517 | area under concentration-response curve (CU-ACC2): 559 | area under concentration-response curve (CU-ACC1): 504

CC1(N)CCN(c2cnc(-c3cccc(Cl)c3Cl)c(N)n2)CC1
area under concentration-response curve (NCI-H295R): 577 | area under concentration-response curve (CU-ACC2): 627 | area under concentration-response curve (CU-ACC1): 543

N#CCC1(n2cc(-c3ncnc4[nH]ccc34)cn2)CN(C2CCN(C(=O)c3ccnc(C(F)(F)F)c3F)CC2)C1
area under concentration-response curve (NCI-H295R): 508 | area under concentration-response curve (CU-ACC2): 453 | area under concentration-response curve (CU-ACC1): 460

CN[C@@H](C)C(=O)N[C@@H]1C(=O)N(Cc2c(C)ccc3ccccc23)c2ccc(C#N)cc2N(C(C)=O)[C@H]1C
area under concentration-response curve (NCI-H295R): 549 | area under concentration-response curve (CU-ACC2): 474 | area under concentration-response curve (CU-ACC1): 501

N#Cc1c(N(CC(=O)[O-])CC(=O)[O-])sc(C(=O)[O-])c1CC(=O)[O-]
area under concentration-response curve (NCI-H295R): 497 | area under concentration-response curve (CU-ACC2): 544 | area under concentration-response curve (CU-ACC1): 478

CO[C@H](C1COC1)C2=C(Cl)C3=C(CCN(C\C4=C(OC)\C=C(\C)NC4=O)C3=O)C(=C2)Cl
area under concentration-response curve (NCI-H295R): 536 | area under concentration-response curve (CU-ACC2): 579 | area under concentration-response curve (CU-ACC1): 496

CCCCCCCCCCCC(CC1OC(=O)C1CCCCCC)OC(=O)C(CC(C)C)NC=O (stereo unspecified)
area under concentration-response curve (NCI-H295R): 336 | area under concentration-response curve (CU-ACC2): 517 | area under concentration-response curve (CU-ACC1): 474

CC(C)(C)c1nc(-c2cccc(N[S+](=O)([O-])c3c(F)cccc3F)c2F)c(-c2ccnc(N)n2)s1
area under concentration-response curve (NCI-H295R): 542 | area under concentration-response curve (CU-ACC2): 608 | area under concentration-response curve (CU-ACC1): 542

C[C@]1(C(=O)N(CCCC(=O)O)Cc2cccc(Cl)c2)CCN1C(=O)c1csc2ccccc12
area under concentration-response curve (NCI-H295R): 532 | area under concentration-response curve (CU-ACC2): 584 | area under concentration-response curve (CU-ACC1): 490

Cc1nc[nH]c1CN1CCN(C(=O)N[C@@H](CC(C)C)C(=O)O)[C@@H](Cc2ccccc2)C1=O
area under concentration-response curve (NCI-H295R): 545 | area under concentration-response curve (CU-ACC2): 621 | area under concentration-response curve (CU-ACC1): 576

Nc1nc(N)c2nc(CNc3ccc(C(=O)NC(CCC(=O)O)C(=O)O)cc3)cnc2n1 (stereo unspecified)
area under concentration-response curve (NCI-H295R): 515 | area under concentration-response curve (CU-ACC2): 543 | area under concentration-response curve (CU-ACC1): 458

OC1=CC=C(C=C1)\C2=C\OC3=C(C(=CC(=C3)O)O)C2=O
area under concentration-response curve (NCI-H295R): 555 | area under concentration-response curve (CU-ACC2): 499 | area under concentration-response curve (CU-ACC1): 435

Cc1cc(C)c(/C=C2\C(=O)Nc3ccccc32)[nH]1
area under concentration-response curve (NCI-H295R): 532 | area under concentration-response curve (CU-ACC2): 559 | area under concentration-response curve (CU-ACC1): 513

CN1\C(=C(\O)C2=CC=CC=C2[S+]1([O-])=O)C(=O)NC3=NC=C(C)S3
area under concentration-response curve (NCI-H295R): 511 | area under concentration-response curve (CU-ACC2): 523 | area under concentration-response curve (CU-ACC1): 461

C=C1C(=O)OC(CCCCCCCC)C1C(=O)O (stereo unspecified)
area under concentration-response curve (NCI-H295R): 437 | area under concentration-response curve (CU-ACC2): 457 | area under concentration-response curve (CU-ACC1): 409

Source: the supplement of paper PMC10949913
